Reference: patent publication US20260115202A1, “TOPICAL COMPOSITIONS COMPRISING AN ESTETROL COMPONENT AND USE OF SAID COMPOSITIONS FOR WOUND HEALING” (NEURALIS SA, priority 2022, published 2026)

How the values were obtained:
[1] = system: murine dermal fibroblasts (MDF); assay: qPCR gene expression in murine dermal fibroblasts; type: cell-based, mouse; details: MDF, 10^−7M, qPCR
Text: Primary human dermal fibroblasts (HDF) were isolated from abdominal skin or leg skin. Primary neonatal normal human epidermal keratinocytes (NHEK) were purchased (Lonza). Murine dermal fibroblasts (MDF), murine epidermal keratinocytes (MEK), murine peritoneal macrophages and murine bone marrow were isolated from C57/B16 (wt). NDb (Lepr+/−) or Db (Lepr−/−) mice. Fibroblasts were isolated and cultured in DMEM supplemented with 10% heat inactivated FBS. 1% penicillin/streptomycin and 1% amphotericin B. At least 4 days prior to performing assays cells were switched to DMEM supplemented with 5% charcoal-stripped FBS. Following treatments, human and murine macrophages were collected in Trizol and RNA isolated using the Trizol plus RNA isolation kit (Invitrogen. Thermo Fisher) according to the manufacturer's instructions. RNA was reverse transcribed to cDNA using GoScript reverse transcriptase (Promega). Quantitative real-time PCR was carried out using 2×Takyon SYBR Green mastermix and a CFX Connect thermocycler. Primers for ERα and ERβ were used to explore changes in ER expression after treatment of MEK and MDF with E2 and E4. To investigate the effect of E2 and E4 on MEK differentiation and the expression of ECM proteins by MDF, primers for. Snail, keratin-1 and fibronectin, collagen I. MMP-2 and MMP-9 were used. Primers for INOS. IL-1B and Tnf-α or Ccl17 were used to assess M1/M2 polarisation status. Primers for GAPDH were used to normalise data. Relative gene expression was set to vehicle controls or M0 expression unless otherwise stated. In vitro cultured murine fibroblasts were treated with either E2, E4, DPN or PPT at 10^−7M. As previously reported. […] Next, zymography was performed on cell supernatants from HDFs treated with either E2 or E4, to evaluate the effect of E2 and E4 on cell-derived MMP activity. […] The magnitude of the effect (and statistical significance) was greater in cells treated with E4. No MMP9 activity was detected in any treatment group. Finally, we explored the effect of E2 and E4 on murine fibroblast expression of extracellular matrix genes, specifically collagen 1 (Colal) and fibronectin (Fn1) (FIG. 20).

[2] = system: mouse bone marrow derived macrophages (BMDM); assay: M1-polarised murine bone marrow derived macrophages, qPCR of M1 markers; type: cell-based; details: M1 polarised BMDM, E4 10^−7M, preliminary
Description: Bones were flushed with DMEM supplemented with 1% penicillin/streptomycin and 1% amphotericin B. Bone marrow cells were seeded into 12- or 6-well plates at 1×10^6 cells/ml in DMEM supplemented with 10% FBS and 10% L929-conditioned medium to induce differentiation. After 7-10 days, differentiated macrophages were treated with 10^−7M E2 or E4 in serum free growth medium for 16 hours and polarised to M1-type cells using 100 ng/ml IFN-γ and 1 μg/ml LPS. Following 6- or 24-hours polarisation cells were collected for RNA isolation or flow cytometry.
Following treatments, human and murine macrophages were collected in Trizol and RNA isolated using the Trizol plus RNA isolation kit (Invitrogen. Thermo Fisher) according to the manufacturer's instructions. RNA was reverse transcribed to cDNA using GoScript reverse transcriptase (Promega). Quantitative real-time PCR was carried out using 2×Takyon SYBR Green mastermix and a CFX Connect thermocycler. Primers for ERα and ERβ were used to explore changes in ER expression after treatment of MEK and MDF with E2 and E4. To investigate the effect of E2 and E4 on MEK differentiation and the expression of ECM proteins by MDF, primers for. Snail, keratin-1 and fibronectin, collagen I. MMP-2 and MMP-9 were used. Primers for INOS. IL-1B and Tnf-α or Ccl17 were used to assess M1/M2 polarisation status. Primers for GAPDH were used to normalise data. Relative gene expression was set to vehicle controls or M0 expression unless otherwise stated.
For follow up experiments murine bone marrow derived monocytes were isolated, differentiated (L929 media) and polarised to a pro-inflammatory M1 phenotype (IFN-γ and LPS: for 6 or 24 hours), and co-treated with either E2 or E4 at the optimal concentration identified in THP1 cells (10^−7: FIG. 24). […] Experiments were then undertaken with murine bone marrow derived monocytes differentiated to macrophages with 30 ng/ml MCSF, as opposed to L929 conditioned media.

[3] = system: human dermal fibroblasts (HDF); assay: Scratch wound assay, human dermal fibroblasts; type: cell-based; details: HDF, 24 hours, preliminary
Text: Primary human dermal fibroblasts (HDF) were isolated from abdominal skin or leg skin. Primary neonatal normal human epidermal keratinocytes (NHEK) were purchased (Lonza). Murine dermal fibroblasts (MDF), murine epidermal keratinocytes (MEK), murine peritoneal macrophages and murine bone marrow were isolated from C57/B16 (wt). NDb (Lepr+/-) or Db (Lepr-/-) mice. Fibroblasts were isolated and cultured in DMEM supplemented with 10% heat inactivated FBS. 1% penicillin/streptomycin and 1% amphotericin B. At least 4 days prior to performing assays cells were switched to DMEM supplemented with 5% charcoal-stripped FBS. Cells were seeded into 24 well plates and cultured to form a confluent monolayer, and then scratched with a 1 ml pipette tip. Wells were treated with E2, E4 and/or various estrogen receptor agonists and antagonists. […] A vehicle control containing the equivalent concentration of EtOH and/or DMSO was included, in addition to an untreated negative control. All treatments were diluted to working concentrations in media supplemented with 2% charcoal-stripped FBS. To visualise scratches at the defined endpoint, cells were stained with crystal violet and imaged on a Nikon E400 brightfield microscope. Scratch closure was determined from multiple independent measurements per well. Scratch assays were performed to quantify the effect of E2 and E4 at varying concentrations on HDF migration (FIG. 14). […] 10^-7M and 10^-6M (152%. 147% and 142% respectively). Thus, both E2 and E4 optimally stimulated fibroblast scratch wound closure at 10^-8M, with the higher magnitude of stimulation observed following E2 treatment. Next, an additional experiment was performed using HDF to a) further confirm the effects of E2 and E4 in fibroblasts from a fifth donor and b) explore the relative effect of including CS-FBS in the cell culture media. Three identical sets of scratch assays were performed (comparing vehicle to E2 or E4 treatment at 10^-7M) in DMEM containing either 2% CS-FBS. 0% FBS or 2% FBS (not CS).

Structure (SMILES) | expression of ERα and ERβ [1] | effect of ER antagonist co-treatment on E4-mediated reduction in IL1-β [2] | effect of ER antagonist co-treatment on E4-induced scratch closure [3]
N#CC(Cc1ccc(O)cc1)c1ccc(O)cc1 (stereo not shown) [DPN] | increased ERβ expression | – | –
CCCc1c(-c2ccc(O)cc2)nn(-c2ccc(O)cc2)c1-c1ccc(O)cc1 [PPT] | increased ERα | – | –
Cc1c(-c2ccc(O)cc2)nn(-c2ccc(O)cc2)c1-c1ccc(OCCN2CCCCC2)cc1 [MPP, reference compound] | – | appears to block E4-induced scratch closure and E4-mediated reduction in IL1-β | appears to block E4-induced scratch closure
